The values that follow come from paper PMC5862601 (Oncotarget, 2018).

SMILES strings stand for the structures. Where two headings read alike, the source gives them in different places.

Assay [1] relates to Human prostatic carcinoma cells PC-3. Set-up: method as in Wei Q, et al. Purinergic Signal. 2013; 9: 271-280. [23]. The note with it: et al. Purinergic Signal. 2013, 9: 271-280. [23], cited from earlier work.
The subject of assay [2] is HEK293 (native) cells, A2B ≥ A2A. The note with it: cited from earlier work.
Assay [3] concerns the target T1, human A2AAR and A2BAR in HEK293T cells (Homo sapiens, UniProt P29274+P29275).
T1 construct: expressed in transfected cells; host or cells: HEK293T
The assay is described as follows: Dynamic mass redistribution (DMR) assay in HEK293T cells transfected with A2A and A2BAR cDNA. The note with it: 100 nM agonist. It is filed as cell-based.
Method: In brief, 24 h before the assay, cells were seeded at a density of 7,500 cells per well in 384-well sensor microplates with 40 µl of growth medium and cultured for 24 h (37° C, 5 % CO2) to obtain 70–80% confluent monolayers. […] Hereafter, the sensor plate was scanned and a baseline optical signature was recorded before adding 10 µl of test compound dissolved in assay buffer containing 0.1% DMSO and DMR responses were monitored for at least 8,000 s using an EnSpire® Multimode Plate Reader (PerkinElmer, Waltham, MA, USA) by a label-free technology. Data were analyzed using EnSpire Workstation Software v 4.10.

Assay [4] has as its target T2, human A2AAR (Homo sapiens, UniProt P29274).
T2 construct: expressed in transfected cells
Nature of the assay: cAMP accumulation assay in CHO-A2A cells. It counts as cell-based. The procedure: (§1) The determination of cAMP accumulation in recombinant CHO and in Jurkat-T cells was performed as previously described.
(In general: Changes in cAMP serve as a functional read-out for many G protein-coupled receptors.)

Assay [5] addresses T3, human A2BAR (Homo sapiens, UniProt P29275).
T3 sequence (P29275 1-332): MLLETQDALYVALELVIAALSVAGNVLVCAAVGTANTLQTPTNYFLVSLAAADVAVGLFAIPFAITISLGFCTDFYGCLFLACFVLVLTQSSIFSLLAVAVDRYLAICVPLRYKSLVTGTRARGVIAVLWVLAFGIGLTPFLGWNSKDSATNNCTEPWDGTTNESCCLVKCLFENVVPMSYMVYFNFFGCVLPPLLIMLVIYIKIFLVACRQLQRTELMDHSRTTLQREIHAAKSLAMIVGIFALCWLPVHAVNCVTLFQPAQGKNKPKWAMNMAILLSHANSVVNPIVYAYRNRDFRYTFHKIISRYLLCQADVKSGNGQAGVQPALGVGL
Set-up: expressed in transfected cells. The note with it: vs [3H]PSB-603 (0.3 nM); A2BAR expressing HEK or CHO membranes; ref [14]; read-out: Ki ± SEM; cited from earlier work.

For assay [6], the target named is T3, human A2BAR. Set-up: expressed in transfected cells. The conditions noted are these: cAMP accumulation; CHO-A2B; ref [13]; cited from earlier work.
The next assay deals with HEK-A2B cells, A2B ≥ A2A. The conditions noted are these: cited from earlier work.
In assay [7] the target is T1, human A2AAR and A2BAR in HEK293T cells. Nature of the assay: cAMP assay at HEK-A2A cells transiently transfected with increasing amounts of A2BAR. It counts as cell-based. The note with it: 100 nM agonist, A2BAR cDNA 0.25–1.5 µg.
Method: HEK293T cells were transiently transfected with the corresponding cDNA (pcDNA3.1+-hA2B, pcDNA3.1+-hA2A) by the polyethylenimine (Sigma) method [62]. The determination of AR-induced cAMP accumulation in HEK293T cells transiently expressing A2A and A2BARs was performed as previously described [62].
Assay [8] has as its target T4, A2BARs in HeLa cell membranes (Homo sapiens, UniProt P29275).
T4 construct: HeLa cells natively expressing human A2A and A2BARs; endogenous in cells; host or cells: HeLa
It is filed as binding. The conditions noted are these: vs [3H]PSB-603 (0.3 nM); HeLa cells, A2B ≥ A2A; read-out: Ki ± SEM.
Method: (§4) The preparations of CHO and HeLa membranes recombinantly (or natively) expressing human A2A and/or A2BAR subtypes were performed as previously described [5]. Membranes from HEK-A2B or A2A cells, which were used for some of the radioligand competition binding studies, were purchased from Perkin Elmer (Waltham, USA). […] The protein content of all membrane preparations was determined with the Lowry method [58].

Assay [9] relates to T24 human bladder carcinoma cells. The note with it: T24 human bladder carcinoma, cited from earlier work.
In assay [10] the target is T5, A2BARs in Jurkat-T cell membranes (Homo sapiens, UniProt P29275).
T5 construct: Human Jurkat-T cells natively expressing A2A and A2BARs; endogenous in cells; host or cells: Jurkat-T
It counts as binding. The conditions noted are these: vs [3H]PSB-603 (0.3 nM); Jurkat-T cells, A2B ≥ A2A; read-out: Ki ± SEM.
Method: The preparation of Jurkat-T cell membranes was performed as follows: a Jurkat-T cell suspension was centrifuged in 50 ml falcon tubes at 200 g, 4° C, 5 min. The supernatant was discarded and the cell pellets were quickly frozen at –80° C. The defrosted pellets were then resuspended in ice-cold 25 mM Tris-buffer, 0.32 M sucrose, 1 mM ethylenediaminetetraacetic acid (EDTA), 0.1 mM phenylmethanesulfonylfluoride (PMSF), pH 7.4, and homogenized with an Ultra-Turrax (30 s on ice). The homogenate was centrifuged for 10 min at 1000 g at 4° C. The resulting pellets were discarded and the supernatant was centrifuged for 1 h at 48.000 g at 4° C. Pellets containing the membranes were resuspended in aqua bidest., homogenized with an Ultra-Turrax (30 s on ice) and centrifuged under the same conditions. The supernantant was discarded and the pellets were resuspended in 50 mM Tris-buffer, pH 7.4 and homogenized with a glass Teflon homogenizer on ice. The resuspended and homogenzied pellets were aliquoted and stored at –80° C until use.
After an incubation time of 60 min at rt, the assay mixture was filtered through GF/B glass fiber filters. Washing buffer: 50 mM Tris-HCl buffer, 0.1% bovine serum albumin (BSA), pH 7.4.

The target in assay [11] is T6, A2A and A2BARs natively expressed in Jurkat-T cells (Homo sapiens, UniProt P29274+P29275). Set-up: method as in ref [15] (a number printed in a supplementary file, which may have a reference list of its own: not looked up in the article's list). The conditions noted are these: cAMP accumulation, up to 10 µM, ref [15]; cited from earlier work.
Assay [12] concerns prostate cancer cell lines (A2B > A2A). The conditions noted are these: three prostate cancer cell lines (A2B > A2A); ref [13]; cited from earlier work.
For assay [13], the target named is T3, human A2BAR. Nature of the assay: biochemical.
Method: as §4
Assay [14] has as its target T2, human A2AAR. The conditions noted are these: vs [3H]MSX-2 (1 nM), A2AAR expressing HEK or CHO membranes, read-out: Ki ± SEM, cited from earlier work.
Assay [15] has as its target T2, human A2AAR. It counts as binding.
Method: The preparations of CHO and HeLa membranes recombinantly (or natively) expressing human A2A and/or A2BAR subtypes were performed as previously described [5]. Membranes from HEK-A2B or A2A cells, which were used for some of the radioligand competition binding studies, were purchased from Perkin Elmer (Waltham, USA). The preparation of Jurkat-T cell membranes was performed as follows: a Jurkat-T cell suspension was centrifuged in 50 ml falcon tubes at 200 g, 4° C, 5 min. The supernatant was discarded and the cell pellets were quickly frozen at –80° C. The defrosted pellets were then resuspended in ice-cold 25 mM Tris-buffer, 0.32 M sucrose, 1 mM ethylenediaminetetraacetic acid (EDTA), 0.1 mM phenylmethanesulfonylfluoride (PMSF), pH 7.4, and homogenized with an Ultra-Turrax (30 s on ice). The homogenate was centrifuged for 10 min at 1000 g at 4° C. The resulting pellets were discarded and the supernatant was centrifuged for 1 h at 48.000 g at 4° C. Pellets containing the membranes were resuspended in aqua bidest., homogenized with an Ultra-Turrax (30 s on ice) and centrifuged under the same conditions. The supernantant was discarded and the pellets were resuspended in 50 mM Tris-buffer, pH 7.4 and homogenized with a glass Teflon homogenizer on ice. […] The protein content of all membrane preparations was determined with the Lowry method [58].
The target in assay [16] is T6, A2A and A2BARs natively expressed in Jurkat-T cells. The note with it: read-out: KB-value ± SEM, cAMP accumulation, antagonist potency versus NECA. As to the method: as §1
Assay [17] has as its target T3, human A2BAR. The assay is described as follows: cell-based. As to the method: as §1
Assay [18] relates to isolated perfused mouse heart. The conditions noted are these: A2B knockout vs wildtype mice, ref [51]; cited from earlier work.
In assay [19] the test system is CHO-K1 cell membranes (non-transfected). Nature of the assay: Radioligand affinity (saturation or homologous competition) at CHO cells. It is filed as binding, Chinese hamster. The procedure:
(§2) Radioligand receptor binding experiments at membrane preparation of native (HeLa) and recombinant cells (CHO- or HEK cells recombinantly expressing A2A and/or A2BARs) using the A2B-selective antagonist radioligand [³H]PSB-603 (spec. activity: 79 Ci/mmol) to detect A2BARs were performed as previously described. Competition binding experiments at various membrane preparations of native (HeLa, Jurkat-T) and recombinant cells (CHO or HEK cells expressing A2A and/or A2BARs) using the A2A-selective antagonist radioligand [^3H]MSX-2 (spec. activity: 85 Ci/mmol) to detect A2AARs were performed in analogy to described procedures. […] Non-specific binding was determined in the presence of unlabeled MSX-2, or CGS-15943, respectively (10 µM), both giving identical results.
(§3) The assay was performed in a final volume of 400 µl containing 4 µl of test compound dissolved in DMSO, 196 µl buffer (50 mM Tris-HCl, 10 mM MgCl2 pH 7.4), 100 µl of radioligand solution in the same buffer (5 nM), and 100 µl of membrane preparation (10 to 200 µg of protein per vial, 2 U/ml ADA 20 min incubation at rt). […] All data were analyzed with GraphPad Prism, Version 4 (GraphPad Inc., La Jolla, CA).

In assay [20] the target is T7, A2A and A2BARs in HeLa cell membranes (Homo sapiens, UniProt P29274+P29275).
T7 construct: HeLa cells natively expressing human A2A and A2BARs; endogenous in cells; host or cells: HeLa
The assay is described as follows: Radioligand affinity at HeLa cells (A2B ≥ A2A). It counts as binding. The note with it: homologous competition, read-out: KD ± SEM. As to the method:
as §2, §3

Assay [21] addresses T2, human A2AAR. The assay is described as follows: Radioligand affinity at HEK or CHO-A2A. It counts as binding. The conditions noted are these: saturation. As to the method: as §2, §3
The target in assay [22] is A2A and A2BARs in intact primary human lymphocytes. Nature of the assay: Radioligand affinity at intact primary human T-lymphocytes, unstimulated. The conditions noted are these: T-Lymphocytes unstimulated (A2A > A2B), intact cells, homologous competition. It counts as binding.
The target in assay [23] is T8, A2A and A2BARs in Jurkat-T cell membranes (Homo sapiens, UniProt P29274+P29275).
T8 construct: Human Jurkat-T cells natively expressing A2A and A2BARs; endogenous in cells; host or cells: Jurkat-T
The assay is described as follows: Radioligand affinity at Jurkat-T cells (A2B ≥ A2A). It counts as binding. The conditions noted are these: homologous competition. The procedure: as §2
The assay was performed in a final volume of 400 µl containing 4 µl of test compound dissolved in DMSO, 196 µl buffer (50 mM Tris-HCl, 10 mM MgCl2 pH 7.4), 100 µl of radioligand solution in the same buffer (5 nM), and 100 µl of membrane preparation (10 to 200 µg of protein per vial, 2 U/ml ADA 20 min incubation at rt). […] All data were analyzed with GraphPad Prism, Version 4 (GraphPad Inc., La Jolla, CA). […]

Assay [24] has as its target A2A and A2BARs in intact primary human lymphocytes. The assay is described as follows: Radioligand affinity at intact primary human T-lymphocytes, stimulated with phytohemagglutinin. The note with it: T-Lymphocytes stimulated (A2A > A2B); intact cells; homologous competition; read-out: KD ± SEM. It counts as binding.
The target in assay [25] is T3, human A2BAR. More on the design: expressed in transfected cells; method as in ref [12] (a number printed in a supplementary file, which may have a reference list of its own: not looked up in the article's list). The conditions noted are these: HEK or CHO-A2B (A2B); saturation; ref [12]; read-out: KD ± SEM; cited from earlier work.
A further assay concerns the target T9, HA-tagged human A2AAR (Homo sapiens, UniProt P29274).
T9 construct: HA; expressed in transfected cells
Nature of the assay: Radioligand affinity at CHO-HA-A2A. It is filed as binding. The note with it: homologous competition.

The mark [26] stands for this setting: ref Gao Z, et al. Biochem Pharmacol. 2014, 90: 297-306. [17].
The mark [27] stands for this setting: ref Hinz S, et al. J Pharmacol Exp Ther. 2014, 3: 427-436. [15].
Setting [28] is: ref Cooper J, et al. Br J Pharmacol. 1997, 122: 546-550. [18].
[29] abbreviates: ref Phelps PT, et al. Eur J Pharmacol. 2006, 536: 28-37. [20].

T2 sequence (P29274 whole entry): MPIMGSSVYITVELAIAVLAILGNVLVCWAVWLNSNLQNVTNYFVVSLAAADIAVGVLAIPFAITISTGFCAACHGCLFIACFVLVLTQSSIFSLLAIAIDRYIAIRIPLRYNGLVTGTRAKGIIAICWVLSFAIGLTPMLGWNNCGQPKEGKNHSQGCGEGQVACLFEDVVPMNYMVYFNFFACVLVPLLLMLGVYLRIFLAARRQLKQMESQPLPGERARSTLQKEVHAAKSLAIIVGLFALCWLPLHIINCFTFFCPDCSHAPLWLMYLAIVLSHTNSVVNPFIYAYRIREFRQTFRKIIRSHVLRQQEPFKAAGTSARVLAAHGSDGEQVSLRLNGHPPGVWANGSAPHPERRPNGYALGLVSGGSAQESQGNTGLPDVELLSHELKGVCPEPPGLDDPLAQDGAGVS
T6 sequence (P29274 whole entry, one chain of several): as the sequence (P29274 whole entry) above
T9 sequence (P29274 whole entry): as above
T8 sequence (P29274 whole entry, one chain of several): as the sequence (P29274 whole entry) above
T1 sequence (P29274 whole entry, one chain of several): as the sequence (P29274 whole entry) above
T7 sequence (P29274 whole entry, one chain of several): as the sequence (P29274 whole entry) above

The term EC50 denotes the concentration that produces a half-maximal response. Usually Ki stands for the dissociation constant of the complex between target and ligand, obtained from inhibition or displacement. Turning to `N#Cc1c(N)nc(SCC(N)=O)c(C#N)c1-c1ccc(OCC2CC2)cc1` [BAY60-6583], the EC50 in assay [1] (ref Wei Q) was 7.2 nM; in [2] (setting [26]), 296 nM; on human A2AAR [4] (cAMP accumulation, CHO-A2A), over 10000 nM; at human A2BAR [6], 165 nM; in the assay on HEK-A2B cells, A2B ≥ A2A (setting [26]) it was 6.14 nM; with HEK-A2B cells, A2B ≥ A2A (setting [27]), 505 nM. In addition, the EC50 in [9] (setting [26]) is 43 nM. Besides, in assay [3], the “change in DMR signal with increasing amounts of transiently transfected A2BAR” value is reported as “time-dependent increase in the signal”. For the same compound, the Ki is 212 ± 20 nM at human A2BAR [5], 212 ± 58 nM in [8] and 2960 nM in assay [10]. In assay [7], the “change in cAMP accumulation with increasing amounts of transiently transfected A2BAR” value is listed as “significant increase in cAMP accumulation”. In addition, in [11], the “EC50 (result in words)” value is “low signal”. Besides, in assay [12], the “induction of cAMP accumulation” value was “concentration-dependently induced cAMP accumulation”.
Consider `CCCn1c(=O)c2[nH]c(C3CCCC3)nc2n(CCC)c1=O` [DPCPX, 8-cyclopentyl-1,3-dipropylxanthine], for which the “A2B antagonist IC50/KB” value in assay [2] (setting [28]) is given as “DPCPX: 97.7 nM”.
On to `CCCn1c(=O)c2[nH]c(-c3ccc(OCC(=O)Nc4ccc(C#N)cc4)cc3)nc2n(CCC)c1=O` [MRS1754], for which the “A2B antagonist IC50/KB” value in assay [9] (setting [29]) is “MRS1754: 665 nM”.
On to `C#CCn1c(=O)c2c(nc(C=Cc3cccc(OC)c3)n2C)n(CCCO)c1=O` [MSX-2, 3-(3-hydroxypropyl)-7-methyl-8-(m-methoxystyryl)-1-propargylxanthine], for which the figures for the Ki on human A2BAR [13], at human A2AAR [14] (ref [13]) and at human A2AAR [15] were over 1000 nM, 2.03 nM and 5 ± 0.6 nM, respectively. In addition, the Kb on human A2AAR [4] (read-out: KB-value ± SEM) came out at 14.5 ± 3.6 nM.
For `CCCn1c(=O)[nH]c2nc(-c3ccc(S(=O)(=O)N4CCN(c5ccc(Cl)cc5)CC4)cc3)[nH]c2c1=O` [PSB-603, 8-(4-(4-(4-chlorophenyl)-piperazine-1-sulfonyl)phenyl)-1-propylxanthine], the Kb is 1 nM in assay [1] (versus BAY60-6583, ref Wei Q, read-out: A2B antagonist KB); 0.871 nM in assay [16]; 0.358 nM at human A2BAR [17]. For the same compound, the Ki on human A2AAR [14] (ref [12]) is over 10000 nM; in [8] it was 1.43 ± 0.73 nM; in assay [10], 1.43 ± 0.58 nM.
On to `Nc1nc2c(cnn2CCc2ccccc2)c2nc(-c3ccco3)nn12` [SCH58261], for which, in assay [18], the “block of NECA-induced increase in coronary flow” value is reported as “blocked NECA-induced increase in coronary flow to a higher degree in KO than in WT mice”. For the same compound, the “A2A antagonist IC50/KB” value in [9] (setting [29]) is “SCH58261:405 nM”.
Regarding `CCNC(=O)[C@H]1O[C@@H](n2cnc3c(N)nc(NCCc4ccc(CCC(=O)O)cc4)nc32)[C@H](O)[C@@H]1O` [[³H]CGS-21680], the “KD ± SEM” value in assay [19] is given as “No binding”.
By Kd is commonly meant the equilibrium constant for the complex coming apart. With `CCCn1c(=O)[nH]c2nc(-c3ccc(S(=O)(=O)N4CCN(c5ccc(Cl)cc5)CC4)cc3)[nH]c2c1=O` [[³H]PSB-603], the “KD ± SEM” value is given as “no high-affinity binding” in assay [19]; “no high-affinity binding” at human A2AAR [21]; “High affinity binding” in [22]; “high affinity binding” in [23]; “no high-affinity binding” at HA-tagged human A2AAR. Further, the Kd in [20] was 2.49 ± 1.39 nM; in [22] (read-out: KD ± SEM), 0.68 ± 0.242 nM; in [23] (read-out: KD ± SEM) it was 2.09 ± 0.72 nM; in assay [24], 0.241 ± 0.108 nM; on human A2BAR [25], 0.403 ± 0.188 nM.
With `Nc1ncnc2c1ncn2[C@@H]1O[C@H](CO)[C@@H](O)[C@H]1O` [adenosine], the EC50 in assay [2] (setting [28]) is 65000 nM; in the assay with HEK-A2B cells, A2B ≥ A2A (setting [27]) it was 2510 nM.
